Reference: US20250144047A1, “PHARMACEUTICAL COMPOSITION FOR PREVENTING, AMELIORATING, OR TREATING CANCER CONTAINING 8-PARADOL” (KDBIO CORP., priority 2022, published 2025)

Assays:
AGS cells = details: for IC50: read-out: IC50 on AGS cells, 24 hours, MTT assay; for IC50 / dose at which significant toxicity to AGS cells was not exhibited: AGS cells; for dose at which significant toxicity to AGS cells was not exhibited: MTT
Description: AGS cells were grown in RPMI medium containing 10% FBS and 1% PS. HEK293 and RAW264.7 cells were grown in DMEM medium containing 10% FBS and 1% PS under conditions of 37° C., 5% CO2 and 95% air.
In order to evaluate toxicity to each cell, the sample was incubated in each cell (1×10^5 cells/well) cultured in the above manner for 24 hours, and then cytotoxicity to each cell was examined by using the MTT assay.

[1] = test system: AGS xenograft tumor tissue; assay: IHC staining of tumor tissue; format: in vivo; details: tumor tissue of administered mice
Description: The tumor tissue was fixed with 10% formalin and embedded with paraffin. Immunohistochemical (IHC) staining was performed using a mouse and rabbit-specific HRP/DAB (ABC) detection IHC kit (Abcam, Cambridge, MA, USA). The tissue was observed through an optical microscope, and the presence of a specific protein in the tumor tissue was determined to be the presence of a brown yellow color. The results were evaluated using ImageJ software.

[2] = test system: AGS xenograft tumor tissue; assay: Western blot of tumor tissue of xenograft mice; format: in vivo; details: tumor tissue, oral 5 mg/kg, compared to control group
Description: For whole protein extraction, AGS cells were processed with samples at various concentrations for 24 hours. The cells were dissolved using Pierce™ RIPA buffer (Thermo Fisher Scientific, Rockford, IL, USA) together with protease inhibitor cocktail (GenDEPOT, TX, USA). The cell-dissolved solution formed in the above manner was centrifuged at 12,000 rpm for 20 minutes. The protein was loaded into a 10% SDS-PAGE gel using a protein gel electrophoresis chamber system and transferred to a PVDF membrane (Thermo Fisher Scientific, Rockford, IL, USA). A PBST solution containing 5% skim milk was used to block the membrane at 25° C. for 1 hour. Then, the membrane was incubated overnight at 4° C. with primary antibodies. Finally, the membrane was incubated with the secondary antibodies at 25° C. for 1 hour, and a protein band was detected using West-Q Pico ECL Solution (GenDEPOT, TX, USA). The results were quantified using ImageJ software.
Each mouse was orally administered with 8-paradol and 5-FU once a day for a total of 16 days. The control group was administered with only 0.9% of general saline during this period. Body weights and tumor volumes of the mice were measured daily in all mice during the study period. All mice were euthanized after the end of the experiments. Blood, liver, spleen, kidney, and tumor tissues were extracted and weighed. In order to obtain the protein of tumor tissue, a portion of the tissue was processed with RIPA buffer containing a protease inhibitor cocktail. Then, the expression degree of a specific protein (determined by Western blot) was determined.

[3] = design: species or system mice; details: mouse, in vivo, po, 5 mg/kg
Description: Male nude mice (CAnN.Cg-Foxn1-nu, 4 weeks old, 20 g to 22 g) were purchased from OrientBio (Seongnam, Republic of Korea). The mice were placed in a chamber with conditions maintained at 23° C. and 50% humidity with a period of 12 hours of light and 12 hours of darkness. All animal experiments were conducted according to the National Institutes of Health's Laboratory Animal Care and Use Guidelines (NIH Publications No. 8023, revised 1996) and the Kyung Hee University's Animal Care and Use Guidelines ([…]-441, approval data: Sep. 28, 2021). […] The control group was administered with only 0.9% of general saline during this period. Body weights and tumor volumes of the mice were measured daily in all mice during the study period. All mice were euthanized after the end of the experiments. Blood, liver, spleen, kidney, and tumor tissues were extracted and weighed. In order to obtain the protein of tumor tissue, a portion of the tissue was processed with RIPA buffer containing a protease inhibitor cocktail. Then, the expression degree of a specific protein (determined by Western blot) was determined. […] Fuji Dri-Chem analyzer (3500, Fuji Photo Film Co., Osaka, Japan) was used to measure alanine aminotransferase (ALT), aspartate aminotransferase (AST), total bilirumin (T-Bili), total protein (TP), albumin (Alb), albumin/globulin (A/G) ratio, total cholesterol (T-Chol), total triglyceride (TG), glucose (GLU), and blood urea nitrogen (BUN) values.

CCCCCCC[C@H](O)CC(=O)CCc1ccc(O)c(OC)c1 [Purified Compound 4, 8-gingerol]
IC50 (AGS cells): 33.2 ± 1.21 µM

CCCCC[C@H](O)CC(=O)CCc1ccc(O)c(OC)c1 [Purified Compound 2, 6-gingerol]
IC50 (AGS cells): 178 ± 2.51 µM

CO[C@H]1C[C@@H]2CC[C@@H](C)[C@@](O)(O2)C(=O)C(=O)N2CCCC[C@H]2C(=O)O[C@H]([C@H](C)C[C@@H]2CC[C@@H](O)[C@H](OC)C2)CC(=O)[C@H](C)/C=C(\C)[C@@H](O)[C@@H](OC)C(=O)[C@H](C)C[C@H](C)/C=C/C=C/C=C/1C [rapamycin, reference compound]
dose at which significant toxicity to AGS cells was not exhibited (AGS cells): less than 6 μM

CCCCCCCC(=O)CCc1ccc(O)c(OC)c1 [Purified Compound 1, 6-paradol]
IC50 (AGS cells): 25.7 ± 1.87 µM

N#CC(C#N)=NNc1cccc(Cl)c1 [CCCP, carbonyl cyanide m-chlorophenylhydrazone, reference compound]
dose at which significant toxicity to AGS cells was not exhibited (AGS cells): less than 15 μM

CCCCCCCCC[C@H](O)CC(=O)CCc1ccc(O)c(OC)c1 [Purified Compound 5, 10-gingerol]
IC50 (AGS cells): 16.1 ± 2.32 µM

CCCCC/C=C/C(=O)CCc1ccc(O)c(OC)c1 [Purified Compound 6, 6-shogaol]
IC50 (AGS cells): 32.9 ± 2.26 µM

O=c1[nH]cc(F)c(=O)[nH]1 [5-FU, 5-fluorouracil]
density of LC3 and caspase-3 in tumor tissue [1]: increased | cytotoxicity to AGS cells (AGS cells): strong toxicity | protein expressions of LC3, Pink1, Parkin, Bax, Cytochrome-c, cleaved-caspase-3/caspase-3, Cleaved-caspase-9/caspase-9, p62 and Bcl-2 [2]: lower | A/G (albumin/globulin) [3]: 0.52 ratio | ALT (alanine aminotransferase) [3]: 101.6 U/L | AST (aspartate aminotransferase) [3]: 204.9 U/L | Alb (albumin) [3]: 1.7 g/dL | BUN (blood urea nitrogen) [3]: 26.7 mg/dL | Crea (creatinine) [3]: 0.34 mg/dL | GLU (glucose) [3]: 56 mg/dL | T-Bili (total bilirubin) [3]: 0.08 mg/dL | T-Chol (total cholesterol) [3]: 124 mg/dL | TG (triglyceride) [3]: 34 mg/dL | TP (total protein) [3]: 5.1 g/dL

CCCCCCC/C=C/C(=O)CCc1ccc(O)c(OC)c1 [Purified Compound 7, 8-shogaol]
IC50 (AGS cells): 45.6 ± 3.6 µM

CCCCCCCCC/C=C/C(=O)CCc1ccc(O)c(OC)c1 [Purified Compound 8, 10-shogaol]
IC50 (AGS cells): 64.5 ± 1.98 µM
